This is an account of results in paper PMC5866590 (Proceedings of the National Academy of Sciences of the …, 2018).

Each structure is given as a SMILES string. Like-named read-outs stand apart in the source and are kept apart here.

In the assay the target is T1, FmlHLD (Escherichia coli, UniProt Q1RBS0).
T1 sequence (Q1RBS0 25-184): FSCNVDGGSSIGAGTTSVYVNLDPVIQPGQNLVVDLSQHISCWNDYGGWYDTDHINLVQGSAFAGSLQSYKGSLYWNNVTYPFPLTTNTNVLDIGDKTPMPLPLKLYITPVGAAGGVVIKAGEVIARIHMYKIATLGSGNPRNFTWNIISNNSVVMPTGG
The assay is classed as binding, Escherichia coli (UPEC strain UTI89). The following applies: for Percent inhibition (PI100) of FmlHLD binding to ds-BSM: mean with SEM in Table S2.

The mark [1] stands for this setting: Fig. 1B: 1 mM or 0.1 mM compounds.

As for `CC(=O)N[C@H]1C(O)O[C@H](CO)[C@H](O)[C@@H]1O` (mixture of isomers) [GalNAc, N-acetylgalactosamine, reference compound], the “Inhibition of FmlHLD binding to ds-BSM (in words)” value (shortened to “Inhibition of FmlHLD binding”) (compound at 1 mM) is reported as “capable of inhibiting FmlHLD”.

As for `OC[C@H]1O[C@@H](Oc2ccccc2)[C@H](O)[C@@H](O)[C@H]1O` [1β, phenyl β-galactoside], for the setting “compound at 100 μM, 100 µM”, the “Percent inhibition (PI100) of FmlHLD binding to ds-BSM” value (“Percent inhibition (PI100)” below) amounted to 77%. The same measure, in the same setting: to `O=c1ccc2nc3ccc(O[C@@H]4O[C@H](CO)[C@H](O)[C@H](O)[C@H]4O)cc3oc-2c1` [15β] belongs 80%; to `OC[C@H]1O[C@@H](Oc2cc3c(O)cc(O)cc3[o+]c2-c2ccc(O)c(O)c2)[C@H](O)[C@@H](O)[C@H]1O` [24β, cyanidin galactoside], 29%. With `COc1cc(-c2[o+]c3cc(O)cc(O)c3cc2O[C@@H]2O[C@H](CO)[C@H](O)[C@H](O)[C@H]2O)ccc1O` [25β], the “Percent inhibition (PI100)” value (compound at 100 μM) was 3.6%. Turning to `O=c1c(O[C@@H]2O[C@H](CO)[C@H](O)[C@H](O)[C@H]2O)c(-c2ccc(O)c(O)c2)oc2cc(O)cc(O)c12` [26β, quercetin galactoside], the “Percent inhibition (PI100)” value (compound at 100 μM, 100 µM) was 14%. With `CC(C)S[C@@H]1O[C@H](CO)[C@H](O)[C@H](O)[C@H]1O` [36β-thio, isopropyl β-thiogalactoside, reference compound], where the note is “compound at 100 μM”, the “Inhibition of FmlHLD binding” value is on record as “minor inhibitory activity”.

As to `O=C[C@H](O)[C@@H](O)[C@@H](O)[C@H](O)CO` [Gal, galactose, reference compound], the “Inhibition of FmlHLD binding” value (compound at 1 mM) is “capable of inhibiting FmlHLD”. For `OC[C@H]1OC(O)[C@H](O)[C@@H](O)[C@@H]1O` (stereo partly drawn) [Glc, glucose, reference compound], the “Inhibition of FmlHLD binding” value under setting [1] was “neither Man nor glucose (Glc) had any detectable effect”.

As for `OC[C@H]1O[C@@H](O[C@H]2[C@H](O)[C@@H](O)C(O)O[C@@H]2CO)[C@H](O)[C@@H](O)[C@H]1O` (stereo partly drawn) [Lac, Gal(β1-4)Glc, reference compound], the “Inhibition of FmlHLD binding” value under setting [1] is reported as “incapable of inhibiting FmlHLD”. On to `OC[C@H]1OC(O)[C@@H](O)[C@@H](O)[C@@H]1O` (stereo partly drawn) [Man, mannose, reference compound], for which the “Inhibition of FmlHLD binding” value under setting [1] was “neither Man nor glucose (Glc) had any detectable effect”. As for `CC(=O)N[C@@H]1[C@@H](O[C@@H]2O[C@H](CO)[C@H](O)[C@H](O)[C@H]2O)[C@@H](O)[C@@H](CO)O[C@@H]1O` [TF, Gal(β1-3)GalNAc(α), reference compound], the “Inhibition of FmlHLD binding” value (compound at 1 mM) is “capable of inhibiting FmlHLD”.
